Data reported in patent US12168665B2, “Substituted imidazo[l,2-a]pyrazines and pyrazino[l,2-a] pyrimidines as topical agents for dermatological applications” (Genesis Molecular Technologies, Inc., priority 2020, dated 2024).
Entries after “also recorded” stand apart in the source; their conditions may differ. Read-outs that look alike come from different tables or passages of the source.

Tests used:
[1] = tested on: TCF/LEF reporter activity; assay: Wnt/driven TCF/LEF reporter (Luc) activity in HEK293 cell line assay; type: cell-based; settings: TCF/LEF reporter (Luc)-HEK293 cells, LiCl and mouse Wnt3a stimulation, read-out: IC50 value of compounds against TCF/LEF reporter activity
Procedure: Assay of Wnt/driven TCF/LEF reporter (Luc) activity in a stably transfected cell line. The Wnt/driven TCF/LEF reporter (Luc) activity in a stably transfected cell line assay was performed at BPS Bioscience (San Diego, CA 92121, USA). In brief, TCF/LEF reporter (Luc)-HEK293 cells are harvested from culture in growth medium and seeded at a density of about 35,000 cells per well into a white clear-bottom 96-well microplate in 80 μL of assay medium. 20 μL of 50 mM LiCl solution in assay medium are added to each well (final concentration 10 mM), and cells are incubated at 37° C. in a CO2 incubator for 16 hours. 10 μL of threefold serial dilution of mouse Wnt3a in assay medium are added to each stimulated well. The plate is incubated at 37° C. in a CO2 incubator for 6 hours. 100 μL of ONE-Step™ Luciferase Assay buffer per well are added and the plate is shaken for 30 min prior to measuring luminescence using a luminometer.
Exemplary compounds, wherein Y is hydrogen, of the present invention were tested for Wnt/driven TCF/LEF reporter (Luc) activity in HEK293 cell line assay. […] The positive control compound for this assay is IWR-1-endo, which is known in the art as a non-CBP/β-catenin Wnt antagonist, which stabilizes Axin-dependent β-catenin destruction (Chen, B., et al., Nat. Chem. Biol. 2009; 5(2):100-107).

[2] = tested on: CBP/β-catenin (Wnt-driven luciferase activity); assay: SuperTOPFLASH cell-based luciferase assay (Hek293, STF1.1); settings: Homo sapiens; Hek293 STF1.1 cells; tested at 2.5, 5, 10 and 20 μM
Procedure: SuperTOPFLASH Cell-based Luciferase Assay. Hek-293,STF1.1 cells are maintained in DMEM, 10% FBS, Pen-Strep supplemented with 200 μg/mL G418. On the day prior to assay, cells are split into a white, opaque 96-well plate at 10,000 cells per well in 50 μL of complete medium without G418 (for screening of Wnt-signaling inhibitors, G418 can be left out during screening process). After allowing the cells to stabilize and attach overnight, 40 μL of complete medium (without G418) containing 2.5× final concentration of compound or DMSO control is added to the cells and allowed to incubate for 1 hour at 37° C., 5% CO2 prior to adding […] of a 100 mM LiCl solution prepared in complete medium (without G418). After 24 hours, 100 µL of BrightGlo™ (Promega, Cat. #: G7573) is added to each well and the plate is shaken for 5 minutes prior to reading on the Perkin-Elmer EnVision™ Plate Reader. […]

human skin = assay: Cosmetic evaluation on human skin, topical formulation; type: in vivo; settings: 0.15% wt./wt. topical formulation twice daily, 8 weeks
Excerpt: For cosmetic evaluation, compound 6 (0.15% wt./wt.) formulated in an aqueous based vehicle was topically applied twice daily (0.25 g formulation per application) during an 8-week testing period according to the following daytime/nighttime regimen.
During the study, subjects used no other skin care regimen. Prior to application of the test formulation, subjects washed their faces with Purpose cleanser, rinsed and then dry patted their faces. For each daytime and each nighttime application, 0.25 g of the test formulation (2 pumps from an applicator) was then applied to the entire face, around the eyes and onto the neck. Photographs (without any face and eye make-up), and self-assessment was performed before and after the 8-week period.

[3] = Stability by analytical HPLC analysis; type: physicochemical
Procedure: Analytical HPLC analysis was performed on an Agilent 1100 HPLC with a Phenomenex Luna C18 (2) column (3 micron, 150×4.6 mm id) at a flow rate of 0.6 mL/min, eluting with a binary solvent system A and B using a 35%-70% B in 20 min and then 70%-95% B in 5 min (gradient elution 1), or 70%-95% B in 25 min and then 95%-100% B in 3 min (gradient elution 2) (A: Milli-Q water with 0.1% TFA; B: CH3CN with 0.1% TFA). NMR spectra were recorded on a Bruker AV-300 300 MHz NMR instrument using DMSO-d6 or CDCl3 with TMS as an internal standard. Mass spectra data was obtained with Bruker Esquire Liquid Chromatography-Ion Trap Mass Spectrometer.
As is readily apparent, compound 6 is stable at room temperature both in a solid form and in organic solvents (e.g., CH3CN, and CH3OH).

[4] = animal toxicity studies and clinical studies; cited from earlier work
[5] = tested on: hapten-induced atopic dermatitis-like dermatitis; settings: preclinical study (Matsuda-Hirose 2019); cited from earlier work

In the case of `O=C1[C@H](Cc2ccc(O)cc2)N2C(=O)C[C@H](CO)N(C(=O)NCc3ccccc3)[C@H]2CN1Cc1cccc2ccccc12` [Compound 2, (2R,6S,9aS)—N-benzyl-6-(4-hydroxybenzyl)-2-(hydroxymethyl)-8-(naphthalen-1-ylmethyl)-4,7-dioxohexahydro-2H-pyrazino[1,2-a]pyrimidine-1(6H)-carboxamide], the IC50 ([1]; Homo sapiens) is reported as over 25 µM.

Molecule `O=C1[C@H](Cc2ccc(O)cc2)N2C(=O)C[C@@H](CO)N(C(=O)NCc3ccccc3)[C@H]2CN1Cc1cccc2ccccc12` [Compound 3, (2S,6S,9aS)—N-benzyl-6-(4-hydroxybenzyl)-2-(hydroxymethyl)-8-(naphthalen-1-ylmethyl)-4,7-dioxohexahydro-2H-pyrazino[1,2-a]pyrimidine-1(6H)-carboxamide] has an IC50 [2] of 2.5 µM and an IC50 ([1]; Homo sapiens) of 16 µM.

`O=C1[C@H](Cc2ccc(O)cc2)N2C(=O)[C@H](CO)N(C(=O)NCc3ccccc3)[C@H]2CN1Cc1cccc2ccccc12` [Compound 4, (2S,5S,8a5)-N-benzyl-5-(4-hydroxybenzyl)-2-(hydroxymethyl)-7-(naphthalen-1-ylmethyl)-3,6-dioxohexahydroimidazo[1,2-a]pyrazine-1(5H)-carboxamide] gave an IC50 ([1]; Homo sapiens) of 11.2 µM.

Molecule `O=C1[C@H](Cc2ccc(O)cc2)N2C(=O)[C@@H](CCO)N(C(=O)NCc3ccccc3)[C@H]2CN1Cc1cccc2ccccc12` [Compound 5, (2R,5S,8a5)-N-benzyl-5-(4-hydroxybenzyl)-2-(2-hydroxyethyl)-7-(naphthalen-1-ylmethyl)-3,6-dioxohexahydroimidazo[1,2-a]pyrazine-1(5H)-carboxamide] has an IC50 ([1]; Homo sapiens) of over 25 µM.

With `CCCCCCCCCCCC(=O)OC[C@@H]1CC(=O)N2[C@H](CN(Cc3cccc4ccccc34)C(=O)[C@@H]2Cc2ccc(O)cc2)N1C(=O)NCc1ccccc1` [Compound 6, (2S,6S,9aS)-1-(benzylcarbamoyl)-6-(4-hydroxybenzyl)-8-(naphthalen-1-ylmethyl)-4,7-dioxooctahydro-2H-pyrazino[1,2-a]pyrimidin-2-yl)methyl dodecanoate] the “Improvement of skin appearance (wrinkles, redness)” value (human skin) was “improvement of skin appearance (e.g., reducing the appearance of wrinkles and redness) is achieved; also recorded: Skin improvement (e.g., reducing the extent and appearance of wrinkles) was visible”, the “Degradation product detected by analytical HPLC” value ([3]; after 4 days at room temperature) was “No degradation product” and the “Stability at room temperature” value ([3]; solid form and organic solvents (CH3CN, CH3OH), analytical HPLC) was “stable”.

In the case of `O=C1[C@H](Cc2ccc(O)cc2)N2C(=O)CCN(C(=O)NCc3ccccc3)[C@H]2CN1Cc1cccc2ccccc12` [ICG-001], the “Safety at effective levels” value [4] is listed as “extremely safe” and the “Effect on hapten-induced atopic dermatitis-like dermatitis” value [5] is listed as “prevents the emergence of hapten-induced atopic dermatitis-like dermatitis”.

For `O=C(Nc1cccc2cccnc12)c1ccc(N2C(=O)[C@@H]3[C@H](C2=O)[C@@H]2C=C[C@H]3C2)cc1` [IWR-1-endo, reference compound], the IC50 [1] was 0.2 µM.
